The values below come from BindingDB's records for doi:10.1021/jm030165t (National Center For Genetic Engineering and Biotechnology …, 2004).

The target of assay [1] is Bifunctional dihydrofolate reductase-thymidylate synthase (Plasmodium falciparum (isolate K1 / Thailand), UniProt P13922). The experiment in a line: Binding affinity towards wild-type dihydrofolate reductase of Plasmodium falciparum.
A short description of assay [2]: In vitro anti-plasmodial activity against Plasmodium falciparum dihydrofolate reductase wild type (TM4/8.2).
A short description of assay [3]: In vitro anti-plasmodial activity against Plasmodium falciparum dihydrofolate reductase N51I/C59R/S108N (W2).
Assay [4] in a line: In vitro anti-plasmodial activity against Plasmodium falciparum dihydrofolate reductase C59R/S108N (K1CB1) mutant.
Assay [5] can be described thus: In vitro anti-plasmodial activity against Plasmodium falciparum dihydrofolate reductase A16V/S108T (T9/94RC17) mutant.
Assay [6] is described as follows: In vitro anti-plasmodial activity against Plasmodium falciparum dihydrofolate reductase C59R+S108N/I164L (Csl-2) mutant.
Assay [7] can be described thus: In vitro anti-plasmodial activity against Plasmodium falciparum dihydrofolate reductase […]/C59R/S108N/I164L (V1/S) mutant.

The structures appear in SMILES notation.

The term Ki denotes the equilibrium dissociation constant of an inhibitor or competing ligand from its target. A lower Ki goes with a stronger hold on the target. By IC50 is commonly meant the concentration that gives 50% inhibition. Read a high IC50 as a need for much substance.

Sequence of Bifunctional dihydrofolate reductase-thymidylate synthase (P13922 whole entry): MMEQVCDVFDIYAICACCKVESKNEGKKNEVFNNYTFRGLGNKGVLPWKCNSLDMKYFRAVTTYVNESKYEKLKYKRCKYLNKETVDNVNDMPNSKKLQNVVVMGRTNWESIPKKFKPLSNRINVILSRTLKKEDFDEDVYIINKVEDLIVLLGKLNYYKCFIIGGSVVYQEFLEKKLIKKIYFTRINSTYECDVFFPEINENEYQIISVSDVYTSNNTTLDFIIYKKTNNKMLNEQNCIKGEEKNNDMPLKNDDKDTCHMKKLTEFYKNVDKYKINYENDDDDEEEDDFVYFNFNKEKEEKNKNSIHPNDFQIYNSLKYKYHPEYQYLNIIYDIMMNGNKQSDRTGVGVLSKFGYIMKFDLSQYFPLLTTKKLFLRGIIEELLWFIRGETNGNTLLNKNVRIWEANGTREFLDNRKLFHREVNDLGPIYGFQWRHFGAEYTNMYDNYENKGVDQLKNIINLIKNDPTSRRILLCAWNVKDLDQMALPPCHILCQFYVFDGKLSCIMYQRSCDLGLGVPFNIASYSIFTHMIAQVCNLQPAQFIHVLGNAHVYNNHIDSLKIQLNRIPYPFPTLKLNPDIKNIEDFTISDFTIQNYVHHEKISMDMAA

`NC1=NC(c2cccc(Oc3ccc(Cl)cc3)c2)N(c2cccc(Cl)c2)C(N)=N1` (stereo not drawn) [6-(3-(4-chlorophenoxy)phenyl)-1-(3-chlorophenyl)-1,6-dihydro-1,3,5-triazine-2,4-diamine] returned a Ki in assay [1] of 0.0013 µM. Also, the IC50 is 3.9 µM in assay [2]; 2 µM in assay [3]; 2.6 µM in assay [4]; 0.39 µM in assay [5]; 3.1 µM in assay [6]; 3.2 µM in assay [7].
For `NC1=NC(c2cccc(OCc3ccccc3)c2)N(c2ccc(Cl)cc2)C(N)=N1` (stereo not drawn) [6-(3-Benzyloxy-phenyl)-1-(4-chloro-phenyl)-1,6-dihydro-[1,3,5]triazine-2,4-diamine], the inhibition constant (Ki) in assay [1] came to 0.0007 µM. In other words, the sub-nanomolar range.
`NC1=NC(c2cccc(Oc3ccc(Cl)cc3)c2)N(c2ccc(Cl)cc2)C(N)=N1` (stereo not drawn) [6-(3-(4-chlorophenoxy)phenyl)-1-(4-chlorophenyl)-1,6-dihydro-1,3,5-triazine-2,4-diamine] displayed a Ki in assay [1] of 0.0014 µM. The IC50 in assay [2] worked out at 2.8 µM; in assay [4], 3.3 µM; in assay [5], 0.42 µM.
On to `Nc1nc(N)c(-c2cccc(Cl)c2)c(CCOCCCOc2ccccc2)n1` [5-(3-chlorophenyl)-6-[2-(3-phenoxypropoxy)ethyl]pyrimidine-2,4-diamine], for which the IC50 was 0.35 µM in assay [2], 4.5 µM in assay [3], 2.9 µM in assay [6] and 4.6 µM in assay [7].
For `NC1=NC(c2cccc(Oc3cc(Cl)cc(Cl)c3)c2)N(c2cccc(Cl)c2)C(N)=N1` (stereo not drawn) [1-(3-Chloro-phenyl)-6-[3-(3,5-dichloro-phenoxy)-phenyl]-1,6-dihydro-[1,3,5]triazine-2,4-diamine], in assay [1], the affinity corresponds to a Ki of 0.0018 µM. Further, the IC50 in assay [2] was determined as 5.5 µM; in assay [3], 3.4 µM; in assay [4], 3.1 µM; in assay [5] it was 0.05 µM; in assay [6], 3.9 µM; in assay [7], 3.9 µM.
Consider `CCCOc1ccc(C2N=C(N)N=C(N)N2c2cccc(Cl)c2)cc1` (stereo not drawn) [1-(3-chlorophenyl)-6-(4-propoxyphenyl)-1,6-dihydro-1,3,5-triazine-2,4-diamine], for which the IC50 in assay [2] was found to be 0.25 µM; in assay [3] it was 0.38 µM; in assay [4], 1 µM; in assay [5] it was 0.004 µM; in assay [6] it was 2.9 µM; in assay [7] it was 2.9 µM.
On to `CCCCCCC1(C)N=C(N)N=C(N)N1c1cccc(Cl)c1` (stereo not drawn) [1-(3-Chloro-phenyl)-6-hexyl-6-methyl-1,6-dihydro-[1,3,5]triazine-2,4-diamine], for which the inhibitory constant (Ki) in assay [1] is 0.0024 µM. The IC50 in assay [2] was 0.06 µM; in assay [3], 0.51 µM; in assay [4] it was 0.48 µM; in assay [6] it was 0.49 µM; in assay [7] it was 3.2 µM.
On to `CCCC1(C)N=C(N)N=C(N)N1c1cccc(Cl)c1` (stereo not drawn) [1-(3-chlorophenyl)-6-methyl-6-propyl-1,6-dihydro-1,3,5-triazine-2,4-diamine], for which the Ki in assay [1] was 0.0046 µM. In addition, the IC50 was 0.18 µM in assay [2]; 0.28 µM in assay [3]; 0.18 µM in assay [4]; 0.29 µM in assay [6]; 1.1 µM in assay [7].
For the compound `CC(C)C1(C)N=C(N)N=C(N)N1c1cccc(Cl)c1` (stereo not drawn) [1-(3-Chloro-phenyl)-6-isopropyl-6-methyl-1,6-dihydro-[1,3,5]triazine-2,4-diamine], the affinity in assay [1] corresponds to a Ki of 0.0255 µM.
In the case of `Nc1nc(N)c(-c2cccc(Cl)c2)c(CCCOC(=O)OCc2ccccc2)n1` [benzyl 3-(2,6-diamino-5-(3-chlorophenyl)pyrimidin-4-yl)propyl carbonate], the inhibition constant (Ki) in assay [1] stood at 0.0012 µM. Also, the half-inhibitory concentration (IC50) is 1.9 µM in assay [2], 4.1 µM in assay [3], 1.9 µM in assay [6] and 5.9 µM in assay [7].
Turning to `Nc1nc(N)c(-c2cccc(Cl)c2)c(CCCc2ccccc2)n1`, the IC50 in assay [2] is 0.67 µM; in assay [3], 4.3 µM; in assay [6] it was 3.6 µM; in assay [7] it was 5.7 µM.
For `CC1(C)N=C(N)N=C(N)N1c1ccc(Cl)cc1` [Chlorazin], the half-inhibitory concentration (IC50) was 0.04 µM in assay [2]; 5.8 µM in assay [3]; 3.7 µM in assay [5]; 37.9 µM in assay [6]; above 100 µM in assay [7].
In turn, `CC(=O)OCCCc1nc(N)nc(N)c1-c1ccccc1` [Acetic acid 3-(2,6-diamino-5-phenyl-pyrimidin-4-yl)-propyl ester] had a Ki in assay [1] of 0.0106 µM.
The same measure, in the same setting: with `CCCC1(C)N=C(N)N=C(N)N1c1ccc(Cl)cc1` (stereo not drawn) [1-(4-Chloro-phenyl)-6-methyl-6-propyl-1,6-dihydro-[1,3,5]triazine-2,4-diamine] the figure was 0.0035 µM.
Turning to `CCCCCCC1(C)N=C(N)N=C(N)N1c1ccc(Cl)cc1` (stereo not drawn) [1-(4-chlorophenyl)-6-hexyl-6-methyl-1,6-dihydro-1,3,5-triazine-2,4-diamine], the Ki in assay [1] stood at 0.0006 µM. For the same compound, the IC50 was 0.02 µM in assay [2]; 3.3 µM in assay [3]; 2.4 µM in assay [4]; 1.9 µM in assay [5]; 4.1 µM in assay [6]; 6.4 µM in assay [7].
`NC1=NC(c2cccc(Oc3cccc(C(F)(F)F)c3)c2)N(c2cccc(Cl)c2)C(N)=N1` (stereo not drawn) [1-(3-chlorophenyl)-6-(3-(3-(trifluoromethyl)phenoxy)phenyl)-1,6-dihydro-1,3,5-triazine-2,4-diamine] had a Ki in assay [1] of 0.0027 µM. Besides, the IC50 is 3.2 µM in assay [2]; 2.8 µM in assay [3]; 2.8 µM in assay [4]; 0.18 µM in assay [5]; 3.4 µM in assay [6]; 3.2 µM in assay [7].
On to `CC(=O)OCCCc1nc(N)nc(N)c1-c1cccc(Cl)c1` [Acetic acid 3-[2,6-diamino-5-(3-chloro-phenyl)-pyrimidin-4-yl]-propyl ester], for which the IC50 in assay [2] stood at 1.6 µM; in assay [3], 2.1 µM; in assay [6], 1.8 µM; in assay [7], 5.3 µM.
The compound `CC(C)C1(C)N=C(N)N=C(N)N1c1ccc(Cl)cc1` (stereo not drawn) [1-(4-Chloro-phenyl)-6-isopropyl-6-methyl-1,6-dihydro-[1,3,5]triazine-2,4-diamine] showed a Ki in assay [1] of 0.0365 µM.
Same read-out and setting: with `Nc1nc(N)c(-c2ccccc2)c(CCCOC(=O)c2ccccc2)n1` [Benzoic acid 3-(2,6-diamino-5-phenyl-pyrimidin-4-yl)-propyl ester] the figure was 0.0034 µM; with `NC1=NC(c2cccc(Oc3ccccc3)c2)N(c2ccc(Cl)cc2)C(N)=N1` (stereo not drawn) [1-(4-Chloro-phenyl)-6-(3-phenoxy-phenyl)-1,6-dihydro-[1,3,5]triazine-2,4-diamine], 0.0005 µM.
Turning to `Nc1nc(N)c(-c2ccccc2)c(CCCc2ccccc2)n1`, the IC50 in assay [2] stood at 0.21 µM; in assay [3], 2.7 µM; in assay [6], 2.7 µM; in assay [7] it was 8.6 µM.
Consider `NC1=NC(c2cccc(OCc3ccccc3)c2)N(c2cccc(Cl)c2)C(N)=N1` (stereo not drawn) [6-(3-(benzyloxy)phenyl)-1-(3-chlorophenyl)-1,6-dihydro-1,3,5-triazine-2,4-diamine], for which the Ki in assay [1] turned out to be 0.0023 µM. Moreover, the IC50 in assay [2] worked out at 4 µM; in assay [3], 3.3 µM; in assay [4] it was 4.9 µM; in assay [5], 0.19 µM; in assay [6], 7.5 µM.
Turning to `Nc1nc(N)c(-c2cccc(Cl)c2)c(CCCOC(=O)c2ccccc2)n1` [3-(2,6-diamino-5-(3-chlorophenyl)pyrimidin-4-yl)propyl benzoate], the affinity in assay [1] corresponds to a Ki of 0.0015 µM. In addition, the IC50 in assay [2] worked out at 2.1 µM; in assay [3], 2 µM; in assay [6], 1.9 µM; in assay [7], 7.5 µM.
The matching figures for `Nc1nc(N)c(-c2cccc(Cl)c2)c(CCCO)n1` [3-[2,6-Diamino-5-(3-chloro-phenyl)-pyrimidin-4-yl]-propan-1-ol]: 0.0092 µM, 1.1 µM, 4.5 µM, 1.9 µM and 6.2 µM.
`NC1=NC(c2ccc(Oc3ccccc3)cc2)N(c2ccc(Cl)cc2)C(N)=N1` (stereo not drawn) [1-(4-chlorophenyl)-6-(4-phenoxyphenyl)-1,6-dihydro-1,3,5-triazine-2,4-diamine] yielded a Ki in assay [1] of 0.0004 µM. The IC50 in assay [2] was determined as 0.12 µM; in assay [3], 3.2 µM; in assay [4], 3.1 µM; in assay [5], 0.04 µM; in assay [6], 4.8 µM.
For `COc1ccc(CCCc2nc(N)nc(N)c2-c2cccc(Cl)c2)cc1` [5-(3-Chloro-phenyl)-6-[3-(4-methoxy-phenyl)-propyl]-pyrimidine-2,4-diamine], the IC50 in assay [2] is 0.41 µM; in assay [3], 4 µM; in assay [6], 2.7 µM; in assay [7], 4.7 µM.
The matching figures for `CCCCCCc1nc(N)nc(N)c1-c1ccccc1` [6-hexyl-5-phenylpyrimidine-2,4-diamine]: 0.06 µM, 2.3 µM, 3 µM and 6.4 µM.
As to `CCc1nc(N)nc(N)c1-c1cccc(Cl)c1` [5-(3-chlorophenyl)-6-ethylpyrimidine-2,4-diamine], the IC50 in assay [2] worked out at 0.42 µM; in assay [3], 3.9 µM; in assay [6], 2.5 µM; in assay [7], 9.1 µM.
For the compound `NC1=NC(c2ccccc2)N(c2cccc(Cl)c2)C(N)=N1` (stereo not drawn) [1-(3-chlorophenyl)-6-phenyl-1,6-dihydro-1,3,5-triazine-2,4-diamine], the IC50 in assay [2] was found to be 0.56 µM; in assay [3], 0.2 µM; in assay [4], 0.31 µM; in assay [5] it was 0.02 µM; in assay [6] it was 0.25 µM; in assay [7] it was 0.8 µM.
